# Results published in patent US9585846B2, “Anti-microbial composition” (Wild Child, priority 2007, dated 2017).
# Test system: S. aureus ATCC 6538P
# Assay: Agar plate test of cream against S. aureus (colonies recovered)
# Type: cell-based
# Details: farnesol when combined with cetrimide
# Experimental: A series of plates were then prepared containing an aliquot of sample (3) prepared in accordance with the preferred formula given above. The aliquot was suspended in tryptone soy agar. 1 g of the cream was emulsified into 5 mL of saline. A 2 mL aliquot was removed and serially diluted using saline. 6 mL of tryptone soy broth was then added to the suspensions. They were then added to 10 ml, of molten double strength tryptone soy agar and plate poured. Once cooled the plates were inoculated with 94 cfu of S. aureus ATCC 6538P. The plates were then incubated at 32° C. for 5 days. Following the incubation the number of colonies of S. aureus isolated was then determined.
structure (smiles),measurement,value
CC(C)=CCCC(C)=CCCC(C)=CCO [farnesol],Antimicrobial effect of the combination,synergistic antimicrobial effects
